Experimental data reported in patent publication US7432291B2, “Ether derivatives” (Hoffman-La Roche Inc., priority 2004, dated 2008).

What was measured:
[1] = molecular target: T1, HER2 (pY 1248) in Calu3 cells (Homo sapiens, UniProt P04626); assay: Inhibition of HER2 phosphorylation in Calu3 tumor cell line; assay type: cell-based; settings: Calu-3, compound concentration 1 μM, 16 h incubation, percentage of the DMSO treated control, read-out: Percent inhibition of HER2-phosphorylation
T1 construct: endogenous in cells; host or cells: Calu-3 (HTB-55)
T1 sequence (P04626 23-1255): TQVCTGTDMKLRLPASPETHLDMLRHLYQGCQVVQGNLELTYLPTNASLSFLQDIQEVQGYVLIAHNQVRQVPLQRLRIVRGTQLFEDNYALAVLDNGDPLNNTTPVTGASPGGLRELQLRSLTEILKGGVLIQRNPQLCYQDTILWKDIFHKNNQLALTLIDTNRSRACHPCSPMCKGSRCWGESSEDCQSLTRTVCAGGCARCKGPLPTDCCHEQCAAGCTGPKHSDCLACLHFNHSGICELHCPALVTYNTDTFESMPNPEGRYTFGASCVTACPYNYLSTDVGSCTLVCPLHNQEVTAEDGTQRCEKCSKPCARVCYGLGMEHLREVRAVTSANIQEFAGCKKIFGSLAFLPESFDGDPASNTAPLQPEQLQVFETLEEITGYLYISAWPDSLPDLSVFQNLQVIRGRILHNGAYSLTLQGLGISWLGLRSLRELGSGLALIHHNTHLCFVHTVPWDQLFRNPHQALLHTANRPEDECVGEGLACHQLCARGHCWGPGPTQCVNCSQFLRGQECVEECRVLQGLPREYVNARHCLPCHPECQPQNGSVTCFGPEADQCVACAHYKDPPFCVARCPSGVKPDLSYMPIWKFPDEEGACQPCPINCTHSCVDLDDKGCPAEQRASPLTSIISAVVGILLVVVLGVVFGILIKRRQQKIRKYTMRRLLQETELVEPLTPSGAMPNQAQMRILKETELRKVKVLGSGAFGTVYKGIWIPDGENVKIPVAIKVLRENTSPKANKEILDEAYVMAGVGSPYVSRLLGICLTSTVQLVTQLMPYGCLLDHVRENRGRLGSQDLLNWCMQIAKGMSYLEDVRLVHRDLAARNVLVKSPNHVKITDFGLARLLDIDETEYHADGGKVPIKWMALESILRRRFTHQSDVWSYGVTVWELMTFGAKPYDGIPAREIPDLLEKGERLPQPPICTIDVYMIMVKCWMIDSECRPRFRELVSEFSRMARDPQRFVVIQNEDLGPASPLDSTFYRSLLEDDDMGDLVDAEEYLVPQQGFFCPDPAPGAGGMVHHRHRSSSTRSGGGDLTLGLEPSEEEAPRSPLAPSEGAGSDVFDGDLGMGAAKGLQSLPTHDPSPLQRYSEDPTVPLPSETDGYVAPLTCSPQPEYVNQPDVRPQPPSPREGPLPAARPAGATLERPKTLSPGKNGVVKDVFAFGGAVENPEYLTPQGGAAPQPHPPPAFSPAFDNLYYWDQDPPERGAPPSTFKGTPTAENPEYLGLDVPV
Protocol: Inhibition of HER2 Phosphorylation in Calu3 Tumor Cell Line
2×10^5 Calu3 cells [Calu-3 (HTB-55) cells available from ATTC] per well were plated 12-well plate. After 4 days cells were starved for 16 h in DMEM/0.5% FCS/1% Glutamine. During this time cells were incubated with 1 μM of the compound. Afterwards cells were lysed in lyses buffer containing 1% Triton, 10% Glycerol, 1 mM EGTA, 1.5 mM MgCl2, 150 mM NaCl, 50 mM Hepes pH 7.5, 1 mM PMSF, 10 μg/mL Aprotinin and […] Orthovanadate. Cell lysates were analyzed on a SDS PAGE and after transfer to a nitrocellulose membrane detected with an antibody specifically recognizing the pY 1248 in HER2. Inhibition of HER2 phosphorylation is calculated as percentage of the DMSO treated control. This percentage was calculated according to the following formula: Inhibition in %=100−(Phosphorylated-HER2-Signal of Test Sample*100/Phosphorylated-HER2-Signal DMSO-control).

SMILES | inhibition at 1 µM [1] [%] | melting point [°C]
FC1(F)Oc2ccc(/C=C/c3nc(COc4ccc(COCCn5ccnn5)cc4)co3)cc2O1 [example 2, 1-[2-(4-{2-[2-(E)-(2,2-Difluoro-benzo[1,3]dioxol-5-yl)-vinyl]-oxazol-4-ylmethoxy}-benzyloxy)-ethyl]-1H-[1,2,3]triazole] | 85.8 | –
Cc1cc(OCc2coc(C=Cc3ccc(OC(F)(F)F)cc3)n2)ccc1COCCn1ccnn1 [Example 9, 1-[2-(2-Methyl-4-{2-[2-(4-trifluoromethoxy-phenyl)-vinyl]-oxazol-4-ylmethoxy}-benzyloxy)-ethyl]-1H-[1,2,3]triazole] | – | 84 to 85
Cc1cc(OCc2coc(C=Cc3ccc(OC(F)F)cc3)n2)ccc1COCCn1ccnn1 [Example 7, 1-[2-(4-{2-[2-(4-Difluoromethoxy-phenyl)-vinyl]-oxazol-4-ylmethoxy}-2-methyl-benzyloxy)-ethyl]-1H-[1,2,3]triazole] | – | 119 to 120

Second part, the molecule after the results:

inhibition at 1 µM [1] [%] | melting point [°C] | SMILES
69.6 | – | FC(F)Oc1ccc(/C=C/c2nc(COc3ccc(COCCn4ccnn4)cc3)co2)cc1 [example 1, 1-[2-(4-{2-[2-(E)-(4-Difluoromethoxy-phenyl)-vinyl]-oxazol-4-ylmethoxy}-benzyloxy)-ethyl]-1H-[1,2,3]triazole]
73.4 | – | FC(F)(F)Sc1ccc(/C=C/c2nc(COc3ccc(COCCn4ccnn4)cc3)co2)cc1 [example 3, 1-[2-(4-{2-[2-(E)-(4-Trifluoromethylsulfanyl-phenyl)-vinyl]-oxazol-4-ylmethoxy}-benzyloxy)-ethyl]-1H-[1,2,3]triazole]
54 | – | FC(F)(F)c1ccc(/C=C/c2nc(COc3ccc(COCCn4ccnn4)cc3)co2)cc1 [reference compound 2, 1-[2-(4-{2-[(E)-2-(4-Trifluoromethyl-phenyl)-vinyl]-oxazol-4-ylmethoxy}-benzyloxy)-ethyl]-1H-[1,2,3]triazole, reference compound]
78.6 | – | FC(F)(F)Oc1ccc(/C=C/c2nc(COc3ccc(COCCn4ccnn4)cc3)co2)cc1 [example 4, 1-[2-(4-{2-[2-(E)-(4-Trifluoromethoxy-phenyl)-vinyl]-oxazol-4-ylmethoxy}-benzyloxy)-ethyl]-1H-[1,2,3]triazole]
– | 102 | Cc1cc(OCc2coc(C=Cc3ccc(SC(F)(F)F)cc3)n2)ccc1COCCn1ccnn1 [Example 8, 1-[2-(2-Methyl-4-{2-[2-(4-trifluoromethylsulfanyl-phenyl)-vinyl]-oxazol-4-ylmethoxy}-benzyloxy)-ethyl]-1H-[1,2,3]triazole]
